The subject of one assay is NCI-H1048 tumor cells. Briefly: Human small cell lung cancer tumor model (NCI-H1048), single agent and combination. It counts as in vivo, C.B.-17 SCID female mice. The note with it: AZD2014 15 mg/kg daily (qd), oral; p<0.05. How it is done: Compound 1 was formulated in citrate/phosphate buffer pH 5.0 containing 4.5% w/v glucose and dosed intravenously (iv) in a volume of 5 ml/kg. AZD2014 was formulated in 0.5% hydroxypropyl methylcellulose/0.1% Tween 80 and dosed oral in a volume of 10 ml/kg 5×10^6 NCI-H1048 tumor cells were injected subcutaneously in the right flank of C.B.-17 SCID female mice in a volume of 0.1 mL containing 50% matrigel. Tumor volume (measured by caliper) was calculated using the formula: length (mm) x width (mm)^2×0.52. For efficacy studies, mice were randomized based on tumor volume and growth inhibition was assessed by comparison of the differences in tumor volume between control and treated groups. Dosing began when mean tumor volume reached approximately 124 mm^3.

Another assay concerns RS4; 11 cells. As to the kind of experiment: Efficacy in RS4:11 xenograft model. Type of assay: in vivo, mouse. The note with it: Compound A 5 mg/kg. As for the experimental part: Preparation of Compound PBS formulations for dosinq RS4:11 efficacy study: The appropriate amounts of Compound 1 were weighed into a volumetric flask. 10 mL Dulbecc's Phosphate Buffered Saline (PBS) was added and formulations were then stirred until the compound dissolved entirely.
Formulation of Compound A in 30% w/v HP-β-CD
30% w/v HP-β-CD vehicle was prepared. 3 g HP-β-CD (Roquette Kleptose, parenteral grade) was weighed into a 10 mL volumetric flask and 8 mL WFI added and stirred (or sonicated) to dissolve. Once dissolved the volume was made up to 10 mL with WFI.
The appropriate amount of Compound A was weighed into a 10 mL volumetric flask. 8 mL of 30% w/v HP-β-CD vehicle was then added and the formulation stirred. 1M MSA was added dropwise until the pH was reduced to about 2. The formulation was then stirred until the compound dissolved entirely. The pH was measured and adjusted to pH 4, dropwise using 1M MSA or NaOH. […] The final pH was measured and recorded and the formulation filtered through a 0.22 uM filter prior to administration. […]
On specific day, for each treated group, calculate Inhibition value by formula: Inhibition %=(CG−TG)*100/(CG−1), in which “CG” means the geometric mean of rtv of the control group and “TG” means the Geometric Mean of Relative Tumor Volume (rtv) of the treated group. “CG” should use the corresponding control group of the treated group when calculated. […]

The subject of a further assay is OCI-Ly10 tumor cells. Briefly: Human DLBCL xenograft model (OCI-Ly10), single agent and combination. Type of assay: in vivo, C.B.-17 SCID female mice. The note with it: single agent acalabrutinib 12.5 mg/kg bid po. How it is done:
5×10^6 OCI-Ly10 tumor cells were injected subcutaneously in the right flank of C.B.-17 SCID female mice in a volume of 0.1 mL containing 50% matrigel. Compound 1 was formulated in citrate/phosphate buffer pH 5.0, diluted 1 to 10 with 5% glucose containing 1% w/v Kolliphor HS15, and dosed as a weekly intravenous (iv) administration at a volume of 5 mL/kg at a dose of 103 mg/kg (30 mg/kg API). Acalabrutinib was formulated in 0.5% hydroxypropyl methyl cellulose/0.2% Tween 80, and dosed twice a day (bid) as an oral (po) administration at a volume of 10 mL/kg at a dose of 12.5 mg/kg. Tumor volumes (measured by caliper), animal body weight, and tumor condition were recorded twice weekly for the duration of the study. The tumor volume was calculated using the formula: length (mm) x width (mm)^2×0.52. For efficacy studies, growth inhibition from the start of treatment was assessed by comparison of the differences in tumor volume between control and treated groups. Dosing began when mean tumor size reached approximately 166 mm3.
On the technique in general: Xenograft models place foreign cells or tissue in a host animal.

Each structure is given as a SMILES string. Bounds are passed on as bounds.

With `CNC(=O)c1cccc(-c2ccc3c(N4CCOC[C@@H]4C)nc(N4CCOC[C@@H]4C)nc3n2)c1` [AZD2014, vistusertib], the “anti-tumor activity, TGI” value with NCI-H1048 tumor cells is given as 84%.

`CN(CCO)CC[C@H](CSc1ccccc1)Nc1ccc(S(=O)(=O)NC(=O)c2ccc(N3CCC([C@@H](O)c4ccccc4-c4ccc(Cl)cc4)CC3)cc2)cc1S(=O)(=O)C(F)(F)F` [Compound A]: in the assay on RS4; 11 cells, the “% Inhibition Day (47)” value is recorded as over 100% and the “% Regression Day(47)” value was 90%.

On to `CC#CC(=O)N1CCC[C@H]1c1nc(-c2ccc(C(=O)Nc3ccccn3)cc2)c2c(N)nccn12` [acalabrutinib], for which, in the assay on OCI-Ly10 tumor cells, the “tumor growth inhibition (TGI)” value is listed as about 58%.

The record behind these values is patent publication US20220273807A1, “CONJUGATES FOR USE IN METHODS OF TREATING CANCER” (AstraZeneca AB, priority 2018, published 2022).
